Measured values: patent US8642580B2, “Combined therapy against tumors comprising substituted acryloyl distamycin derivatives and platinum derivatives” (priority 2000, dated 2014)

Assays:
[1] = test system: disseminated L1210 murine leukemia; experiment: Antileukemic activity against disseminated L1210 murine leukemia; assay type: in vivo; settings: for ILS % (increase in life span): L1210 10^5 cells/mouse IV day 0; for ILS % (increase in life span) / Tox (number of toxic deaths/number of mice): PNU 166196 0.26 mg/kg/day iv days +1,2, combination same doses and schedule; for Toxicity (in words): single agents: cisplatin 5.9 mg/kg day +3, carboplatin 135 mg/kg day +3, PNU 166196 0.26 mg/kg days +1,2
[2] = test system: human colon carcinoma HCT-116 (low/medium GST and MMR deficiency); experiment: Antitumor activity against subcutaneous implanted HCT-116 human colon carcinoma; assay type: in vivo; settings: for Log cell Kill total / WL % day of nadir / WL % / Tumor free/total mice: IV q7dx3; for Log cell Kill total / WL % day of nadir / WL % / T/C % (tumor regression) / Tumor free/total mice: PNU 166196 0.4 mg/kg, cisplatin 2 mg/kg; for WL %: at nadir; for T/C % (tumor regression): day 20 after treatment, IV q7dx3 from day 7 after implant, PNU 166196 48 hours after cisplatin, NCI: T/C ≦ 42 active; for Tumor free/total mice: on day 40 after tumor implant
[3] = Table 1, cisplatin 5.9 mg/kg iv day +3
[4] = Table 2, carboplatin 135 mg/kg iv day +3

N.N.[Cl][Pt][Cl] [Cisplatin, cisplatin, reference compound]
ILS % (increase in life span) [1, 3]: 67% | Log cell Kill total [2]: 0 | WL % day of nadir [2]: 24 days | WL % [2]: 12% | T/C % (tumor regression) [2]: 92% | Tumor free/total mice [2]: 0/7

C=C(Br)C(=O)Nc1cc(C(=O)Nc2cc(C(=O)Nc3cc(C(=O)Nc4cc(C(=O)NCCNC(=N)N)n(C)c4)n(C)c3)n(C)c2)n(C)c1.Cl [PNU 166196, N-(5-{[(5-{[(5-{[(2-{[amino(imino)methyl]amino}ethyl)amino]carbonyl}-1-methyl-1H-pyrrol-3-yl)amino]carbonyl}-1-methyl-1H-pyrrol-3-yl)amino]carbonyl}-1-methyl-1H-pyrrol-3-yl)-4-[(2-bromoacryloyl)amino]-1-methyl-1H-pyrrole-2-carboxamide hydrochloride]
ILS % (increase in life span) [1, 3]: 33% | Tox (number of toxic deaths/number of mice) [1, 3]: 0/10 | ILS % (increase in life span) [1, 4]: 33% | Tox (number of toxic deaths/number of mice) [1, 4]: 0/10 | Toxicity (in words) [1]: without toxicity | Log cell Kill total [2]: 0.15 | WL % day of nadir [2]: 29 days | WL % [2]: 12% | T/C % (tumor regression) [2]: 61% | Tumor free/total mice [2]: 0/8 | Toxicity (in words) ([2]; single agents: cisplatin 2 mg/kg q7dx3, PNU 166196 0.4 mg/kg q7dx3): without toxicity

N.N.O=C([O-])C1(C(=O)[O-])CCC1.[Pt+2] [Carboplatin, carboplatin, reference compound]
ILS % (increase in life span) [1, 4]: 50% | Tox (number of toxic deaths/number of mice) [1, 4]: 0/10 | Toxicity (in words) [1]: without toxicity
